# Assay results taken from patent US10561318B2, “Device, system and method for quantifying fluorescence and optical properties” (University Health Network, priority 2010, dated 2020).
# Design: species or system patients
# Protocol: Another example study is now described. In this example study, 14 patients with a variety of intracranial pathologies (including low- and high-grade gliomas, meningioma, and intracranial lung metastases, as indicated in FIG. 17) were administered 20-mg/kg of ALA 3 hours prior to induction of anesthesia. The neurosurgeon performed a conventional standard craniotomy procedure with image-guidance using a surgical microscope modified for PpIX fluorescence. At the surgical bed, the surgeon acquired multiple sets of measurements using an example probe, with corresponding tissue specimens collected and processed for histopathological analysis. […] In addition, the surgeon scored the visible fluorescence as viewed through the fluorescence-capable surgical microscope (scores from 0-4). All specimens were assessed as either normal or abnormal, such that presence of tumor cells was assessed as abnormal.
# Receiver-Operator Characteristic Analysis: The receiver-operator characteristic (ROC) curves were generated using the PpIX concentrations as the parameter comparing normal tissue to these tumor populations: all tumors, all gliomas, low-grade gliomas (LGGs), high-grade gliomas (HGGs), meningiomas and metastases. […] The uncorrected fluorescence metric was the magnitude of the PpIX fluorescence peak from the raw fluorescence spectrum, i.e. Fx,m at 635 nm (see Eqs. 1 and 4). […]
smiles,measurement,setting,value
"C=CC1=C(C)c2cc3[nH]c(cc4nc(cc5[nH]c(cc1n2)c(C)c5CCC(=O)O)C(CCC(=O)O)=C4C)c(C)c3C=C [PpIX, protoporphyrin IX]",tumor-to-normal (T/N) ratio of in vivo PpIX concentration,human,200
same,PpIX in abnormal tissue compared to normal tissue,in vivo,approximately at least five times more PpIX
